This is an account of results in ChEMBL document CHEMBL1136125, “Comparative molecular field analysis (CoMFA) of phthalazine derivatives as phosphodiesterase IV inhibitors” (Bioorg Med Chem Lett, 2003).

Broadly, the IC50 is the concentration that gives 50% inhibition.

Test [1] deals with T1, Phosphodiesterase 4 (Homo sapiens, UniProt P27815+Q08499+Q07343+Q08493). In words: Inhibitory concentration against phosphodiesterase 4. In kind it is protein assay.
The target of test [2] is T1, Phosphodiesterase 4. Description: In vitro inhibitory concentration against phosphodiesterase 4. In kind it is protein assay.

In the case of `COc1cc2c(C)nnc(Cc3c(Cl)cncc3Cl)c2cc1OC1CCCC1`, the “Log IC50” value on Phosphodiesterase 4 [1] is -6.84. Further, the IC50 on Phosphodiesterase 4 [2] turned out to be 146 nM. On to `COc1ccc2c(Cc3c(Cl)cncc3Cl)nncc2c1OCCCCCc1ccccc1`, for which, on Phosphodiesterase 4 [1], the “Log IC50” value is on record as -7.25. For `COc1ccc2c(Cc3c(Cl)cncc3Cl)nncc2c1OC1CCCO1` (stereo unspecified), the IC50 at Phosphodiesterase 4 [2] is 153 nM.

As for `CCc1nnc(Cc2c(Cl)cncc2Cl)c2cc(OC3CCCC3)c(OC)cc12`, the “Log IC50” value at Phosphodiesterase 4 [1] is -7.12. The IC50 against Phosphodiesterase 4 [2] is listed as 75 nM.
